Data: ChEMBL document CHEMBL4152373 (Bioorg Med Chem, 2018)

Assays:
[1] = target: T1, Free fatty acid receptor 4 (Homo sapiens) (UniProt Q5NUL3); assay: Antagonist activity at FFA4R (unknown origin) at 10 uM by aequorin based assay relative to control; assay type: functional
T1 sequence (whole entry): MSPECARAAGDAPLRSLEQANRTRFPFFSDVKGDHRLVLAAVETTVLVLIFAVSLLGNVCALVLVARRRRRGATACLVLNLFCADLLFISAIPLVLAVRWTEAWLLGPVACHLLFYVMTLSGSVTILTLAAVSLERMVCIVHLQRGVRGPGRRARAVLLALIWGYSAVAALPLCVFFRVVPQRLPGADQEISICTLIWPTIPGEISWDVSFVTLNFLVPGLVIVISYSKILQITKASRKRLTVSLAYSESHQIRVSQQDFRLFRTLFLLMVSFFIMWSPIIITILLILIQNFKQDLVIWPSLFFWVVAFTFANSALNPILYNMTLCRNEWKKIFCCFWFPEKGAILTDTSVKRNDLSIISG

[2] = target: Hydroxycarboxylic acid receptor 2 (Homo sapiens) (UniProt Q8TDS4); assay: Agonist activity at GPR109a (unknown origin) at 10 uM by aequorin based assay relative to control; assay type: functional
Chain of Hydroxycarboxylic acid receptor 2 (Homo sapiens) (Q8TDS4 whole entry): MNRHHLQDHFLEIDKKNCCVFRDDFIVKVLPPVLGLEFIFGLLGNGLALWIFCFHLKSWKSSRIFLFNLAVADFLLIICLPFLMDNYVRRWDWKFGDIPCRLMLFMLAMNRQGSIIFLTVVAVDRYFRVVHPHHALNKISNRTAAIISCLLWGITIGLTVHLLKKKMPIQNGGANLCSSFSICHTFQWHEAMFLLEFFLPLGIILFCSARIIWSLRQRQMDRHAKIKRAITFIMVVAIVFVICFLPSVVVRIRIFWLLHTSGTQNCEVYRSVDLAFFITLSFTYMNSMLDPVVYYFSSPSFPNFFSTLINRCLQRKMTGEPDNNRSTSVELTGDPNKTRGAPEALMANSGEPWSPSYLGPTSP

Rattus norvegicus [3] = assay: Dose normalized unbound AUC in Sprague-Dawley rat at 3 mg/kg, po administered via gavage as single dose by LC-MS/MS analysis; assay type: ADME, organism-based; settings: in vivo
[4] = Half life in Sprague-Dawley rat at 1 mg/kg, iv administered as single dose by LC-MS/MS analysis; assay type: ADME, organism-based; settings: in vivo
[5] = target: Hydroxycarboxylic acid receptor 3 (Homo sapiens) (UniProt P49019); assay: Antagonist activity at GPR109b (unknown origin) at 10 uM by aequorin based assay relative to control; assay type: functional
Chain of Hydroxycarboxylic acid receptor 3 (Homo sapiens) (P49019 whole entry): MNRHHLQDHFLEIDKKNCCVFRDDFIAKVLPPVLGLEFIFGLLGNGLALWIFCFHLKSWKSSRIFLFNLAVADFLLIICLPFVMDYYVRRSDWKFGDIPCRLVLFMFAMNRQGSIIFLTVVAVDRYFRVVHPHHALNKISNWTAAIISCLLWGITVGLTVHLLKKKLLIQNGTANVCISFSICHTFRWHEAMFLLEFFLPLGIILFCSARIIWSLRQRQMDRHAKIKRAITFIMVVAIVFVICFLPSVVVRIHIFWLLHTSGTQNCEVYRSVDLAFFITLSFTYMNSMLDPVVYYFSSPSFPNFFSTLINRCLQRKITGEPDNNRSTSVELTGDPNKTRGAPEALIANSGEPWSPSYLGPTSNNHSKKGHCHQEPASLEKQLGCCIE

Rattus norvegicus [6] = assay: Unbound clearance in Sprague-Dawley rat at 1 mg/kg, iv administered as single dose by LC-MS/MS analysis; assay type: ADME, organism-based; settings: in vivo
[7] = target: T2, Gastric inhibitory polypeptide receptor (Homo sapiens) (UniProt P48546); settings: 10 uM
T2 sequence (whole entry): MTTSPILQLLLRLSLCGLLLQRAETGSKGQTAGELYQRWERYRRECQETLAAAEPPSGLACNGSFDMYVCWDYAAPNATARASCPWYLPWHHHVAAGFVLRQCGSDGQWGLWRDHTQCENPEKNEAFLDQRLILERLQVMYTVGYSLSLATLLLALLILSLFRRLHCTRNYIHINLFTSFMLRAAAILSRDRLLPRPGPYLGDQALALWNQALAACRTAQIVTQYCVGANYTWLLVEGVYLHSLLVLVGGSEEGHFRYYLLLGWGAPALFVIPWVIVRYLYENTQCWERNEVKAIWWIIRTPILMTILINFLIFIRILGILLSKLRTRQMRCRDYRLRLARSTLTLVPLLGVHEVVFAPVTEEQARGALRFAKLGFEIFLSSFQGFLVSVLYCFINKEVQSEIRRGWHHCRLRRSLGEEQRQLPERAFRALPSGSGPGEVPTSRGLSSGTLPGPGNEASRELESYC
Description: Antagonist activity at GIPR (unknown origin) at 10 uM by cAMP accumulation based assay relative to control

[8] = target: T3, Free fatty acid receptor 3 (Homo sapiens) (UniProt O14843); settings: 10 uM
T3 sequence (whole entry): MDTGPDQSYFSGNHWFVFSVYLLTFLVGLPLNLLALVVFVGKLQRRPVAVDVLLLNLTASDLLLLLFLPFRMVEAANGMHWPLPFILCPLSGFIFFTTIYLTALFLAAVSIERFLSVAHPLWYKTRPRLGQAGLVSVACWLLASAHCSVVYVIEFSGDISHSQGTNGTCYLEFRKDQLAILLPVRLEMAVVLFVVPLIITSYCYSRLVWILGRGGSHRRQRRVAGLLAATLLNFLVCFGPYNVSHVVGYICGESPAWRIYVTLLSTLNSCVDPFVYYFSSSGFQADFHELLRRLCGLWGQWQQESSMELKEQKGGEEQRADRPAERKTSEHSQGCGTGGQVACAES

[9] = target: T4, Glucocorticoid receptor (Homo sapiens) (UniProt P04150); settings: 10 uM
T4 sequence (whole entry): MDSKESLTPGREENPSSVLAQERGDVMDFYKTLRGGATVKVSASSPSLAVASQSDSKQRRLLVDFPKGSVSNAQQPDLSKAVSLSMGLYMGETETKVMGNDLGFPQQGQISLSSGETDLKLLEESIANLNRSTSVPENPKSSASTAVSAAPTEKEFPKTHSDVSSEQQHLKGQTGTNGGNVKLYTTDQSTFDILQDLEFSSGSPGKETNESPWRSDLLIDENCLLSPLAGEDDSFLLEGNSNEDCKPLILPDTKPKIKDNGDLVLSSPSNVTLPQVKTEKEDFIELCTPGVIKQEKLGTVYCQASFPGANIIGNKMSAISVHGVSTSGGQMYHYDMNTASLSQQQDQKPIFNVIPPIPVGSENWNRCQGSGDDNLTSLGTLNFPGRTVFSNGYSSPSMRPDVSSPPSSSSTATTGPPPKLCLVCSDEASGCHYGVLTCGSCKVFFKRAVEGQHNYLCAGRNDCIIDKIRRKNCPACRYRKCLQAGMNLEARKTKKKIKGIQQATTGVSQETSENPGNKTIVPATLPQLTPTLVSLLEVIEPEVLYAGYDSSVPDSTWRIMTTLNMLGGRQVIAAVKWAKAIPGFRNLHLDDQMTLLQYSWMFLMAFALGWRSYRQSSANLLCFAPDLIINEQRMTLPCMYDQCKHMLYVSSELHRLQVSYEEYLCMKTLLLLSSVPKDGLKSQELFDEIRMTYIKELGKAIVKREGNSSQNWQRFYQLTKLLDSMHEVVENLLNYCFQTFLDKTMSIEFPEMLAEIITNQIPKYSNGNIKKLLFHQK
Description: Antagonist activity at GCR (unknown origin) at 10 uM by cAMP accumulation based assay relative to control

[10] = target: T5, Glucose-dependent insulinotropic receptor (Homo sapiens) (UniProt Q8TDV5); assay: Antagonist activity at GPR119 (unknown origin) at 10 uM by cAMP accumulation based assay relative to control; assay type: functional
T5 sequence (whole entry): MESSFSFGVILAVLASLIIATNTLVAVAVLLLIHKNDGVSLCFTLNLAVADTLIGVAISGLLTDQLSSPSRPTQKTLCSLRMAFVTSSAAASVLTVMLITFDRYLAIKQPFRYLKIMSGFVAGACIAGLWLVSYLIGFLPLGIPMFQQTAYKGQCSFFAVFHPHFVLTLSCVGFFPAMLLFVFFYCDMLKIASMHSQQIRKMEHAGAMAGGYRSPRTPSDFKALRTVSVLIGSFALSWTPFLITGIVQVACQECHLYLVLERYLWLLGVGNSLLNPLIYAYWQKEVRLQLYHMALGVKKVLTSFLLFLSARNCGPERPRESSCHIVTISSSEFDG

[11] = target: T5, Glucose-dependent insulinotropic receptor (Homo sapiens); assay: Agonist activity at GPR119 (unknown origin) at 10 uM by cAMP accumulation based assay relative to control; assay type: functional
[12] = Fraction unbound in mouse plasma at 5 uM after 4 hrs by equilibrium dialysis method

inhibition [1]: 16%
Activity [2]: < 10%
fAUC/dose (Rattus norvegicus [3]): 0.29 µM·min
half-life [4]: 4 h
inhibition [5]: 22%
CL free (Rattus norvegicus [6]): 2617 mL/min/kg
inhibition [7]: < 10%
inhibition [8]: < 10%
inhibition [9]: < 10%
inhibition [10]: < 10%
Activity [11]: < 10%
fraction unbound at 4 h, 5 µM [12]: 0.0023
SMILES: COc1ccc(-c2ccccc2-c2csc(N(C(=O)[C@@H](CC(=O)O)CC3CCCC3)C3CC3)n2)cn1
